Data taken from patent US5668152A, “Protein kinase C inhibitors” (priority 1995, dated 1997).
Entries after “also recorded” stand apart in the source; their conditions may differ. Like-named read-outs stand apart in the source and are kept apart here.

Tests used:
[1] = tested on: PKC isozymes; details: cited from earlier work
[2] = target: protein kinase C alpha (Homo sapiens, UniProt P17252); assay: PKC Enzyme assay, alpha isozyme; assay type: biochemical; details: PKC alpha; 30 μM ATP, 30° C., 10 minutes; read-out: IC50 α
Description: (§1) PKC enzymes=alpha, beta I, beta II, gamma, delta, epsilon, eta and zeta.
(§2) Assay components in a total volume of 250 μL are the following:
(§3) Vesicles consisting of 120 μg/mL phosphatidylserine (Avanti Polar Lipids) and sufficient diacylglycerol (Avanti Polar Lipids) to activate the enzyme to maximum activity in 20 mM HEPES buffer (Sigma, St. Louis, Mo.), pH 7.5, 940 μM calcium chloride (Sigma, St. Louis, Mo.) for assaying the alpha, beta I, beta II and gamma enzyme only, 1 mM EGTA for all the enzymes, 10 mM magnesium chloride (Sigma, St. Louis, Mo.) and 30 μM (gamma-32P) ATP (DuPont). For all the enzymes either histone type HL (Worthington) or myelin basic protein is used as substrate. The assay is started by addition of protein kinase C enzyme incubated at 30° C. for 10 minutes and stopped by adding 0.5 mL of cold trichloroacetic acid (Amresco) followed by 100 μL of 1 mg/mL bovine serum albumin (Sigma, St. Louis, Mo.). The precipitate is collected by vacuum filtration on glass fiber filters employing a TOMTEC™ filtration system and quantified by counting in a beta scintillation counter.

[3] = target: protein kinase C delta (Homo sapiens, UniProt Q05655); assay: biochemical; details: PKC delta; 30 μM ATP, 30° C., 10 minutes; read-out: IC50 δ
Chain of protein kinase C delta (Q05655 whole entry): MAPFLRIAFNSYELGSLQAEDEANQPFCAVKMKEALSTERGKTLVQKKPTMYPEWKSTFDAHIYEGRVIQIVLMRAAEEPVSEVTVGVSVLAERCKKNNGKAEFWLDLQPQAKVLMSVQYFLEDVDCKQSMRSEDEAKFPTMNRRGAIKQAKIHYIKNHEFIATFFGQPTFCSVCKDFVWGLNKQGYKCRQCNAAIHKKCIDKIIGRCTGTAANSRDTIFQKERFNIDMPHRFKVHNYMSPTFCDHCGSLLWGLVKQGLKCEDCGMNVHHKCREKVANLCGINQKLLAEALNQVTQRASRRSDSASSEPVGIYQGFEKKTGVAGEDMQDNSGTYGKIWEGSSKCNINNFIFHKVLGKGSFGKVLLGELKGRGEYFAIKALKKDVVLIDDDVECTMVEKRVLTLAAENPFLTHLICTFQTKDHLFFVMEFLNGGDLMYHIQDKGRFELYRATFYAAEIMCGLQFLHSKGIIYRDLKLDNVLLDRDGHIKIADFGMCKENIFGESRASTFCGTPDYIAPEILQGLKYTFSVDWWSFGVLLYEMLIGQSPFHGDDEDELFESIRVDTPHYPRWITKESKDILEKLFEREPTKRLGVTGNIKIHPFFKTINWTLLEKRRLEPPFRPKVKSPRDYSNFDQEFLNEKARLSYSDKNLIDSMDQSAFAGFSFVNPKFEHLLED
Description: as §1, §2, §3

[4] = target: protein kinase C beta-1 (Homo sapiens, UniProt P05771); assay: PKC Enzyme assay, beta I isozyme; assay type: biochemical; details: PKC beta-1; 30 μM ATP, 30° C., 10 minutes; read-out: IC50 β1
Chain of protein kinase C beta-1 (P05771 whole entry): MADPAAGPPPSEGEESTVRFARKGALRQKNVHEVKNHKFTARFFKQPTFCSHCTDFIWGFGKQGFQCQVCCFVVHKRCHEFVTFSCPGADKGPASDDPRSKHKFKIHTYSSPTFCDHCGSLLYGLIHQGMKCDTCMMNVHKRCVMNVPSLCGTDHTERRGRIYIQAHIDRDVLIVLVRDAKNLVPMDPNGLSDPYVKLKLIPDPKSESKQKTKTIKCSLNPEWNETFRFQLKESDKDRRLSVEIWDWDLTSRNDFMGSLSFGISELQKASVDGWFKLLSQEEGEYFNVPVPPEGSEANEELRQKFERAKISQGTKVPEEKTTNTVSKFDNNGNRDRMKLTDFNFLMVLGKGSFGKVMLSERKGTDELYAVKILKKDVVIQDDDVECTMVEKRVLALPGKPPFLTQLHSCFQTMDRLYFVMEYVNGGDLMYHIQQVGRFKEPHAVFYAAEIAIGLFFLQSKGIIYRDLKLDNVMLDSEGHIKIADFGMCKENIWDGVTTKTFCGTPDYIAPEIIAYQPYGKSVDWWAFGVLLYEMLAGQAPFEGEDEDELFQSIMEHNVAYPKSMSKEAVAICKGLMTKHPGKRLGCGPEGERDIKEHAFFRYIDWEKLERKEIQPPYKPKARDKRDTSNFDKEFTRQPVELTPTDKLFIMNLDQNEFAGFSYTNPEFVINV
Description: as §1, §2, §3

[5] = target: protein kinase C gamma (Homo sapiens, UniProt P05129); assay: PKC Enzyme assay, gamma isozyme; assay type: biochemical; details: PKC gamma; 30 μM ATP, 30° C., 10 minutes; read-out: IC50 γ
Description: as §1, §2, §3

[6] = target: T1, protein kinase C epsilon (Homo sapiens, UniProt Q02156); assay: PKC Enzyme assay, epsilon isozyme; assay type: biochemical; details: PKC epsilon; 30 μM ATP, 30° C., 10 minutes; read-out: IC50 ε
T1 sequence (Q02156 1-737): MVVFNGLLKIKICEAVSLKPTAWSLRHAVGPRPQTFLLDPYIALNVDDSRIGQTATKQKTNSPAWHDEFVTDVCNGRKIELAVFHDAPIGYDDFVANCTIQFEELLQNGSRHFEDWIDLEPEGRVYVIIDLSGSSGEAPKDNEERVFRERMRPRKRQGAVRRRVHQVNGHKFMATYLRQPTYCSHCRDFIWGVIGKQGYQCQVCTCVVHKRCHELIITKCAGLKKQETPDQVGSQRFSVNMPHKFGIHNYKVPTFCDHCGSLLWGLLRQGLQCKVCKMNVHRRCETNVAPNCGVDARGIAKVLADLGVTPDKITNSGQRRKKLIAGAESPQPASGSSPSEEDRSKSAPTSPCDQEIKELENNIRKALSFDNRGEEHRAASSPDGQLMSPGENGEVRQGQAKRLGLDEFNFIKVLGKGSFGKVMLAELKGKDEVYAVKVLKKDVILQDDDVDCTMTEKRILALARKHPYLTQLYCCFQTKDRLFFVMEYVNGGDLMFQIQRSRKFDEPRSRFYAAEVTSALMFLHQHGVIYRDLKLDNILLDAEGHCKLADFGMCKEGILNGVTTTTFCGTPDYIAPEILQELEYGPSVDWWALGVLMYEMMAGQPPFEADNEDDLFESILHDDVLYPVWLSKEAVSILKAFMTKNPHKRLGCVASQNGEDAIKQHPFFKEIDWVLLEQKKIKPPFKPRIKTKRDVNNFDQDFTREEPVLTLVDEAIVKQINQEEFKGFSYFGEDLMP
Description: as §1, §2, §3

[7] = target: T2, protein kinase C zeta (Homo sapiens, UniProt Q05513); assay: PKC Enzyme assay, zeta isozyme; assay type: biochemical; details: PKC zeta; 30 μM ATP, 30° C., 10 minutes; read-out: IC50 ζ
T2 sequence (Q05513 1-592): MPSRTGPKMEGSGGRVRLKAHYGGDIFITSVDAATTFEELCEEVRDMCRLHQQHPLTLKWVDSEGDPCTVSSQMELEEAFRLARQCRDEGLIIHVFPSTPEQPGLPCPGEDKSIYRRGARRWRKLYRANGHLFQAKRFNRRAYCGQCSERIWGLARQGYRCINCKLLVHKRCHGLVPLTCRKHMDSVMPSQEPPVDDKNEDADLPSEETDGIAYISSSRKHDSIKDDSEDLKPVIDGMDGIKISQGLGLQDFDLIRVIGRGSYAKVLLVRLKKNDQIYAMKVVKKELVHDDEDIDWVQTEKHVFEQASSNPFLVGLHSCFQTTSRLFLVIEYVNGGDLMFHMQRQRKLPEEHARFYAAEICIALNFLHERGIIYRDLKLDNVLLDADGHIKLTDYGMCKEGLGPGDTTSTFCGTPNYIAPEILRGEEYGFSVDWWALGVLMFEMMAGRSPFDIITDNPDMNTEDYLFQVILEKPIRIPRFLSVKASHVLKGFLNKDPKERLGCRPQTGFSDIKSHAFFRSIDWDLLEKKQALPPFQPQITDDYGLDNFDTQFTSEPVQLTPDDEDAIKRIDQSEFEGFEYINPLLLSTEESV
Description: as §1, §2, §3

[8] = target: protein kinase C beta-2 (Homo sapiens, UniProt P05771); assay: PKC Enzyme assay, beta II isozyme; assay type: biochemical; details: PKC beta-2; 30 μM ATP, 30° C., 10 minutes; read-out: IC50 β2
Chain of protein kinase C beta-2 (P05771 1-673 isoform P05771-2): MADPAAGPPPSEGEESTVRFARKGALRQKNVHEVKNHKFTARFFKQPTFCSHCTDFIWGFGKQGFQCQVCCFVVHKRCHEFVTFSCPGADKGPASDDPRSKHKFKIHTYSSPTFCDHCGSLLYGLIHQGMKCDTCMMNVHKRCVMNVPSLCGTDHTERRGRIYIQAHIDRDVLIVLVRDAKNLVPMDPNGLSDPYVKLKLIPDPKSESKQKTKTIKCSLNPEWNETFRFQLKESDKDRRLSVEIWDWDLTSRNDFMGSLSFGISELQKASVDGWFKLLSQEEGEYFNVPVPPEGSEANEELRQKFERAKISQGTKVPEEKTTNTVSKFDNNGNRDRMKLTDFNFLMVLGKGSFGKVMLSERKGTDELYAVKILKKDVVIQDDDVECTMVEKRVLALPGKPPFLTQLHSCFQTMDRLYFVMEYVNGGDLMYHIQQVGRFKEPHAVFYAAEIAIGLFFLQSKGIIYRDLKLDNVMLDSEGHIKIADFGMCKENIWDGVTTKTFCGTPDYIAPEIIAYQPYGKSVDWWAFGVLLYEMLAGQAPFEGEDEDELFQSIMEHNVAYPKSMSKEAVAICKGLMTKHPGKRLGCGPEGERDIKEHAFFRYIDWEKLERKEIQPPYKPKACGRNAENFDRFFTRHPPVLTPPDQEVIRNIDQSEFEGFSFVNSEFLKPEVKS
Description: as §1, §2, §3

[9] = target: protein kinase C eta (Homo sapiens, UniProt P24723); assay: PKC Enzyme assay, eta isozyme; assay type: biochemical; details: PKC eta; 30 μM ATP, 30° C., 10 minutes; read-out: IC50 η
Chain of protein kinase C eta (P24723 whole entry): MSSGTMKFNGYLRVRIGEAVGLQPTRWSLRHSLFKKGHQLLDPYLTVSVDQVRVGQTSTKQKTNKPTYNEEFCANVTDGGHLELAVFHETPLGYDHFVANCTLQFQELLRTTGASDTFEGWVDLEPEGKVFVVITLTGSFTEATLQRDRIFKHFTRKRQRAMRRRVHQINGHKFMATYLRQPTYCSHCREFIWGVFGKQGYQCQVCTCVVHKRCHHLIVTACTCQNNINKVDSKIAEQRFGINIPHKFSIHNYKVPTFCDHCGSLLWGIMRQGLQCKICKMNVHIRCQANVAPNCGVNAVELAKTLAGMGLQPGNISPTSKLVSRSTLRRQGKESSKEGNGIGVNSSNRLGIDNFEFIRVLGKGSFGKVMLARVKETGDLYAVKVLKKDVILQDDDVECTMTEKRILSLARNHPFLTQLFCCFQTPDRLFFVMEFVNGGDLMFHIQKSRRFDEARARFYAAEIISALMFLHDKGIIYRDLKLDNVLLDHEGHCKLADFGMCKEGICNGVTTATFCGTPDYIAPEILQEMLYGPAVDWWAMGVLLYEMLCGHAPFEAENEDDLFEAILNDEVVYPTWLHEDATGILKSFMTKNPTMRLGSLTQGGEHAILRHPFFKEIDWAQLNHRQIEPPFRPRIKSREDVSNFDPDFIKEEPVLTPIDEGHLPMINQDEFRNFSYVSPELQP
Description: as §1, §2, §3

SMILES	isozyme selectivity ([1]; Martiny-Baron et al. (1993))	isozyme selectivity ([1]; Toullec et al. (1991))	IC50 [2]	IC50 [3]	IC50 [4]	IC50 [5]	IC50 [6]	IC50 [7]	IC50 [8]	IC50 [9]
CN(C)CCCn1cc(C2=C(c3c[nH]c4ccccc34)C(=O)NC2=O)c2ccccc21 [3-[1-(3-dimethylaminopropyl)-indol-3-yl]-4-(1H-indol-3-yl)-1H-pyrrole-2,5-dione]	slight selectivity for isozymes, alpha and beta versus delta, epsilon, and zeta; also recorded: no differences in the selectivity between alpha and beta-1 isozymes	slight selectivity for the calcium dependent isozymes; also recorded: no isozyme selectivity between alpha, beta-1, beta-2, and gamma	–	–	–	–	–	–	–	–
Cn1cc(C2=C(c3cn(CCCCOC4CC(O)C(CN)O4)c4ccccc34)C(=O)NC2=O)c2ccccc21 (centres unmarked) [Example 54]	–	–	6.7 µM	7.9 µM	1.1 µM	15 µM	4.3 µM	37 µM	0.34 µM	2.5 µM
CC(=O)NCC1OC(OCCCCn2cc(C3=C(c4cn(C)c5ccccc45)C(=O)NC3=O)c3ccccc32)CC1OC(C)=O (centres unmarked) [Example 55]	–	–	2.3 µM	0.95 µM	0.26 µM	4.2 µM	6.6 µM	45 µM	0.05 µM	1.2 µM
Cn1cc(C2=C(c3cn(CCCCOC4C[C@H](O)[C@@H](CO)O4)c4ccccc34)C(=O)NC2=O)c2ccccc21 (some centres unmarked) [Example 56]	–	–	1.6 µM	0.93 µM	0.069 µM	3.2 µM	2.4 µM	49 µM	0.039 µM	1.3 µM
Cn1cc(C2=C(c3cn(CCO[C@@H]4C[C@H](O)[C@@H](CN=[N+]=[N-])O4)c4ccccc34)C(=O)NC2=O)c2ccccc21 [Example 58]	–	–	4.9 µM	4.5 µM	0.24 µM	38 µM	12 µM	46 µM	0.27 µM	2.5 µM
Cn1cc(C2=C(c3cn(CCOC4O[C@H](CO)[C@@H](O)[C@@H](N=[N+]=[N-])[C@H]4O)c4ccccc34)C(=O)NC2=O)c2ccccc21 (some centres unmarked) [Example 59]	–	–	4.5 µM	2.8 µM	0.2 µM	9 µM	31 µM	48 µM	0.11 µM	1.6 µM
Cn1cc(C2=C(c3cn(CCOC4O[C@H](CO)[C@@H](O)[C@@H](O)[C@H]4N=[N+]=[N-])c4ccccc34)C(=O)NC2=O)c2ccccc21 (some centres unmarked) [Example 60]	–	–	4.5 µM	7.4 µM	0.18 µM	24 µM	91 µM	75 µM	0.042 µM	3.6 µM
Cn1cc(C2=C(c3cn(CCOC4C[C@H](N=[N+]=[N-])[C@@H](CO)O4)c4ccccc34)C(=O)NC2=O)c2ccccc21 (some centres unmarked) [Example 61]	–	–	3.6 µM	3.2 µM	0.16 µM	4.8 µM	20 µM	20 µM	0.041 µM	0.75 µM
Cn1cc(C2=C(c3cn(CCOC4C[C@@H](N=[N+]=[N-])[C@@H](CO)O4)c4ccccc34)C(=O)NC2=O)c2ccccc21 (some centres unmarked) [Example 62]	–	–	4.4 µM	3.9 µM	0.2 µM	5.2 µM	42 µM	41 µM	0.1 µM	2.6 µM
Cn1cc(C2=C(c3cn(CCOC4C[C@H](N)[C@@H](CO)O4)c4ccccc34)C(=O)NC2=O)c2ccccc21 (some centres unmarked) [Example 63]	–	–	1.7 µM	1.6 µM	0.13 µM	4 µM	3.6 µM	50 µM	0.049 µM	0.14 µM
Cn1cc(C2=C(c3cn(C4CCOC4)c4ccccc34)C(=O)NC2=O)c2ccccc21 (centres unmarked) [Example 64]	–	–	0.16 µM	0.16 µM	0.005 µM	0.28 µM	0.8 µM	50 µM	0.005 µM	0.04 µM
Cn1cc(C2=C(c3cn(CCOC4O[C@H](CO)[C@@H](O)[C@@H](N)[C@H]4O)c4ccccc34)C(=O)NC2=O)c2ccccc21 (some centres unmarked) [Example 67]	–	–	6.6 µM	4.1 µM	0.3 µM	8.2 µM	38 µM	47 µM	0.2 µM	2.6 µM
CN1CCC(Cn2cc(C3=C(c4cn(C)c5ccccc45)C(=O)NC3=O)c3ccccc32)CC1 [Example 68, 3-(1-Methyl-indol-3-yl)-4-[1-(1-methyl-piperidin-4-ylmethylene)-indol-3-yl]-1H-pyrrole-2,5-dione]	–	–	1.4 µM	1.9 µM	0.047 µM	2.4 µM	4.6 µM	9.8 µM	0.033 µM	0.11 µM
CCOC(=O)N1CCC(Cn2cc(C3=C(c4cn(C)c5ccccc45)C(=O)NC3=O)c3ccccc32)CC1 [Example 69, 3-[1-(1N-ethycarbomate-piperidin-4-yl-methylene)-indol-3-yl]-4-[1-methyindol-3-yl]-1H-pyrrole-2,5-dione]	–	–	6.5 µM	7.3 µM	0.39 µM	8.2 µM	> 100 µM	> 100 µM	0.21 µM	3.1 µM
CC(=O)NCC1OC(OCCCCn2cc(C3=C(c4cn(C)c5ccccc45)C(=O)N(C(C)=O)C3=O)c3ccccc32)CC1OC(C)=O (centres unmarked) [Example 70]	–	–	3.3 µM	3.2 µM	0.32 µM	3 µM	70 µM	37 µM	0.19 µM	1.4 µM
Cn1cc(C2=C(c3cn(C4CN(C(c5ccccc5)c5ccccc5)C4)c4ccccc34)C(=O)NC2=O)c2ccccc21 [Example 72, 3-[1-(Benzhydryl-azetidin-3-yl)-indol-3-yl)-4-(1-methyl-indol-3-yl)-1H-pyrrole-2,5-dione]	–	–	> 100 µM	> 100 µM	9.1 µM	90 µM	> 100 µM	49 µM	2.7 µM	0.042 µM
